Test results reported in ChEMBL document CHEMBL1201862, “PubChem BioAssay data set” (2004).
The source made the active and inactive calls. Cut-off read from the data, not from the text of the source, for most assays here: actives have a measured EC50 and inactives only a lower limit.

Legend:
[1] = M. tuberculosis H37Rv growth inhibitors, H37Rv strain (AID 1626); assay type: functional
Bcl-2-related protein A1 [2] = biological target: T1, Bcl-2-related protein A1 (Mus musculus, UniProt Q07440); assay: Bfl-1 inhibitors blocking BH3 peptide binding, confirmation, biochemical, TR-FRET, mouse Bfl-1 (AID 621);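 note: TR-FRET binding of GST-Bfl-1 to FITC-labelled Bid peptide via terbium antibody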
Bcl-2-related protein A1 [3] = biological target: T1, Bcl-2-related protein A1; assay: Bfl-1 binding inhibitors, SAR follow-up, biochemical, fluorescence polarization (AID 1070)
[4] = biological target: T2, RNA-binding protein pos-1 (Caenorhabditis elegans, UniProt G5EF15); assay: inhibitors of POS-1/mex-3 RNA binding, dose response, biochemical, fluorescence polarization (AID 1964);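 note: purified POS-1 fused to maltose binding protein made in E. coli; potency of compounds blocking POS-1 binding to fluorescent RNA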
T2 sequence (G5EF15 whole entry): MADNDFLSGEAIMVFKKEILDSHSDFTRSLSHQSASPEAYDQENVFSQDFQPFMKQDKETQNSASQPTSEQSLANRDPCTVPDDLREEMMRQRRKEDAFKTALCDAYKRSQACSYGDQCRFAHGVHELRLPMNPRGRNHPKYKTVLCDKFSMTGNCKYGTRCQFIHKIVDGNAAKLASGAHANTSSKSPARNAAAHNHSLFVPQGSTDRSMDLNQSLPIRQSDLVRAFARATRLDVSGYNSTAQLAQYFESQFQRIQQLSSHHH

[5] = test system: Streptococcus sp. 'group A'; assay: growth inhibition of control SK(-) GAS strain, dose response, counter-screen for streptokinase expression inhibitor project, luminescence, kanamycin, BacTiterGlo, confirmation (AID 1900); assay type: functional, organism-based
[6] = biological target: T3, Zinc finger protein mex-5 (Caenorhabditis elegans, UniProt Q9XUB2); assay: MEX-5/TCR-2 RNA interaction inhibitors, dose response, biochemical, C. elegans, fluorescence polarization (AID 1960)
T3 sequence (Q9XUB2 whole entry): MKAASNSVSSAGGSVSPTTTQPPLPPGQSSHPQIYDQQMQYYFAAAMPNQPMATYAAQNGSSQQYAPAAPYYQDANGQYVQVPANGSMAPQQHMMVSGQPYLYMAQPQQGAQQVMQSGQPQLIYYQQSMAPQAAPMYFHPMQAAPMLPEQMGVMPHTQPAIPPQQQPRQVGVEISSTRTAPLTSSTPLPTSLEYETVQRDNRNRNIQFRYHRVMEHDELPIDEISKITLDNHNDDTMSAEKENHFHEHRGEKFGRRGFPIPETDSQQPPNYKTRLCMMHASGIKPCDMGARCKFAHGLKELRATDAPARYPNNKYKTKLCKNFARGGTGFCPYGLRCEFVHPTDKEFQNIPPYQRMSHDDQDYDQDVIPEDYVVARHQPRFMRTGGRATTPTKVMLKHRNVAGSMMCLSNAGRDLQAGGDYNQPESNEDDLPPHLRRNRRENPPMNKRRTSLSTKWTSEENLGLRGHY

Streptokinase A = biological target: T4, Streptokinase A (Streptococcus pyogenes serotype M1, UniProt P10520); assay: S. pyogenes streptokinase expression inhibitors, potency, dose response, plasminogen activation absorbance, OD405 (AID 1914); assay type: functional, Streptococcus pyogenes M1 GAS;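 note: secreted streptokinase activity via plasminogen activation per viability signal from cell pellet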
T4 sequence (P10520 whole entry): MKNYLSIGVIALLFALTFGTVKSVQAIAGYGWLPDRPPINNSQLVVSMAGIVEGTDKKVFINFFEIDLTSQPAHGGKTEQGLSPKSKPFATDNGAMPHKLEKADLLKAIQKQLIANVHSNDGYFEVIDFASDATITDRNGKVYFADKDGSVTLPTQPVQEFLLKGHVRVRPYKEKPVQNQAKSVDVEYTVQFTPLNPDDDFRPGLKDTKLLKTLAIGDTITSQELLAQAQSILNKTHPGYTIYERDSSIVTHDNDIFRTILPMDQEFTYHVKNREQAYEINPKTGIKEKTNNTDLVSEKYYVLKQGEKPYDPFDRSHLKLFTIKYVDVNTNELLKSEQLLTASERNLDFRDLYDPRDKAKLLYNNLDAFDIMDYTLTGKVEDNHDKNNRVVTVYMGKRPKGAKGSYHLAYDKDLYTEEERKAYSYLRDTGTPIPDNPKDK

[7] = Escherichia coli growth inhibition, dose response, counter-screen for MEX-5/POS-1 RNA-binding inhibitor project, luminescence, NEB5alpha (AID 1959); assay type: functional
Streptococcus = assay: Group A Streptococcus viability loss, dose response, counter-screen for streptokinase expression inhibitor project, luminescence, BacTiterGlo (AID 1915); assay type: functional, organism-based;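 note: potency for reduction of bacterial viability or growth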

T1 sequence (Q07440 whole entry): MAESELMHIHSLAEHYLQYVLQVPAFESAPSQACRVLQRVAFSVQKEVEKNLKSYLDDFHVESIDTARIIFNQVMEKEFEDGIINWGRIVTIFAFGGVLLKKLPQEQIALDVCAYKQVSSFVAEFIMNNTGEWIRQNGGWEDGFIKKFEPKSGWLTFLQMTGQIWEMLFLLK

For `COc1ccc(OCCCC(=O)Nc2cccc(SC)c2)cc1`, the IC50 [1] was > 100 µM (active).

For `Clc1ccc(-n2nnc(-c3cc4ccccc4nc3Cl)n2)cn1`, the IC50 (Bcl-2-related protein A1 [2]) was > 100 µM (not active) and the IC50 (Bcl-2-related protein A1 [3]) was > 100 µM (not active).

For `Cc1ccc(C(=O)C2=C(O)C(=O)N(Cc3ccco3)C2c2cccc(Br)c2)o1` (centres undefined), the EC50 [4] was > 300 µM (not active), the EC50 [5] was 6.16 µM (active) and the EC50 [6] was 35.6 µM (active). The EC50 (Streptokinase A) was > 150 µM (not active), the EC50 [7] was 18.3 µM (inconclusive) and the EC50 (Streptococcus) was 11.2 µM (active).
